Results from patent publication US5021551A, “Method of enhancing peptide immunogenicity” (Washington University, priority 1989, dated 1991).
Entries after “also recorded” stand apart in the source; their conditions may differ. Peptide text beside a SMILES is read from it.

Key:
Format in all cases: cell-based
[1] = tested on: 18N.30 T cell hybridoma (HEL (34-45) specific); test: T cell stimulation assay, 18N.30 hybridoma, fixed TA3 antigen-presenting cells; conditions: FIG. 2
Method: (§1) FIG. 2a and 2b are graphical representation which show the stimulation of two T cell hybridomas, A6.A2 ([…]) and 18N.30 ([…]), that react with a modified T cell immunogenic peptide 34-45NH.sbsb.2 ( ) in another embodiment of the invention compared to normal peptide HEL (34-45) ( ). The assay was performed as described hereinafter in Materials and Methods of the Examples except fixed TA3 cells were used as the source of antigen-presenting cell.
(§2) The level of T cell stimulation was determined as previously described in detail by Allen and Unanue, J. Immunol. 132, 1077 (1984). In general, the level of T cell stimulation was determined by quantitating the amount of IL-2 produced by the T cell hybridomas. IL-2 was bioassayed by determining the level of ^3 H-Thymidine incorporation of the IL-2 dependent cell line, CTLL, 24 hours after culture in the test culture media. The source of antigen presenting cells were either peptone elicited peritoneal macrophages from CBA/J mice previously infected with Listeria monocytogenes or the B cell hybridoma, TA3 [Allen and Unanue, Id.; Allen et al, Proc. Natl. Acad. Sci. USA 81, 2489 (1984)]. […]
(§3) It was also determined whether the changes that enhanced the immunogenicity of HEL (52-61) could be extrapolated to another peptide of HEL which had been previously studied, namely the peptide comprising residues 34-45 [Allen et al, Immun. […]

[2] = tested on: A6.A2 T cell hybridoma (HEL (34-45) specific); test: T cell stimulation assay, A6.A2 hybridoma, fixed TA3 antigen-presenting cells; conditions: FIG. 2
Method: as §1, §2, §3

[3] = tested on: 2A11 T cell hybridoma (HEL(52-61) specific); test: T cell stimulation assay (IL-2 release, CTLL bioassay), 2A11 hybridoma; conditions: relative shift in antigen concentration required for 50% maximal response; 52-61 = 1
Method: (§4) The level of T cell stimulation was determined as previously described in detail by Allen and Unanue, J. Immunol. 132, 1077 (1984). In general, the level of T cell stimulation was determined by quantitating the amount of IL-2 produced by the T cell hybridomas. IL-2 was bioassayed by determining the level of ^3 H-Thymidine incorporation of the IL-2 dependent cell line, CTLL, 24 hours after culture in the test culture media. The source of antigen presenting cells were either peptone elicited peritoneal macrophages from CBA/J mice previously infected with Listeria monocytogenes or the B cell hybridoma, TA3 [Allen and Unanue, Id.; Allen et al, Proc. Natl. Acad. Sci. USA 81, 2489 (1984)]. Both sources of antigen presenting cells were fixed with paraformaldehyde prior to exposure to antigen.
(§5) The relative stimulatory capacity of derivatives of HEL (52-61) are shown. The relative stimulatory capacity of a peptide was determined by the relative shift in the concentration of antigen required for a 50% maximal response. For example, 300 fold less ^- 52-61^+. was required for a 50% maximal response than 52-61 with 3A9 T cells. The stimulation of 3A9 and 2All, two HEL (46-61) specific T cells, was determined as described in Materials and Methods. This test was performed three times, with identical results. A representative test is shown.

[4] = tested on: 3A9 T cell hybridoma (HEL(52-61) specific); test: T cell stimulation assay (IL-2 release, CTLL bioassay), 3A9 hybridoma
Method: as §4, §5

SMILES	increase in response of 18N.30 compared to unmodified HEL (34-45) [1] [fold]	increase in response of A6.A2 compared to unmodified HEL (34-45) [2] [fold]	Relative Stimulatory Capacity, T Cell 2A11 [3]	stimulatory ability, 3A9 T cell (in words) ([4]; qualitative comparison)	Relative Stimulatory Capacity, T Cell 3A9 ([4]; relative shift in antigen concentration required for 50% maximal response, 52-61 = 1)
C[C@H](NC(=O)[C@H](CCC(N)=O)NC(=O)[C@@H](NC(=O)[C@H](CC(N)=O)NC(=O)[C@H](Cc1ccccc1)NC(=O)[C@H](CC(N)=O)NC(=O)[C@H](CO)NC(=O)[C@H](CCC(=O)O)NC(=O)[C@@H](N)Cc1ccccc1)[C@@H](C)O)C(=O)N[C@H](C(=O)N[C@@H](CC(N)=O)C(=O)N[C@@H](CCCNC(=N)N)C(N)=O)[C@@H](C)O [HEL (34-45) with a C terminal amide] (H-FESNFNTQATNR-NH2)	250	50			
CC[C@H](C)[C@H](NC(=O)CNC(=O)[C@H](Cc1ccc(O)cc1)NC(=O)[C@H](CC(=O)O)NC(=O)[C@@H](N)CCCCN)C(=O)N[C@@H](CC(C)C)C(=O)N[C@@H](CCC(N)=O)C(=O)N[C@H](C(=O)N[C@@H](CC(N)=O)C(=O)N[C@@H](CO)C(=O)N[C@@H](CCCNC(=N)N)C(=O)N[C@@H](CCC(=O)O)C(=O)O)[C@@H](C)CC [^+- 52-61^-+] (H-KDYGILQINSRE-OH)			10	drastically reduced; also recorded: less active than HEL (52-61)	0.3
